Results reported in patent publication US9975860B2, “Anti-angiogenic compounds” (UNIVERSITY COLLEGE DUBLIN—NATIONAL UNIVERSITY OF IRELAND, …, priority 2014, dated 2018).
Entries after “also recorded” stand apart in the source; their conditions may differ.

Key:
MLH1 = assay: qPCR DNA repair gene expression in OE33P: MLH1; assay type: cell-based, human; details: 10 μM, 24 hours, p<0.05
Method: (§1) OE33P radiosensitive oesophageal adenocarcinoma cells and OE33R radioresistant oesophageal adenocarcinoma cells were used to test the effects of the compound 4 on DNA repair gene expression. Cells were maintained in RPMI media supplemented with 10% foetal calf serum, penicillin (100 U/ml) and streptomycin (100 μg/ml). A total of 300,000 cells, in 2 ml media, were seeded per well in 6 well plates and left to incubate for 24 hours. The media was replaced with solutions containing 10 μM of compound 4 or the equivalent volume of DMSO vehicle control. After 24 hours of treatment, RNA was extracted from the cells and converted to cDNA. qPCR was then conducted and expression of MMS19, SMUG1 PARP1 and MLH1 was quantified, […]

Ang-2 = assay: Multiplex ELISA of HMEC media: Ang-2; assay type: cell-based, human; details: compound-treated HMECs, 16 hours
Method: (§2) Dermal-derived Human Microvascular Endothelial Cells (HMEC) were maintained at 37° C./5% CO2 in MCDB-131 medium (Gibco/cat: 10372) supplemented with 10% FCS, L-Glutamine (Gibco/cat: 25030-032), 1 μl/ml Hydrocortisone (Sigma/cat: H0396), 10 ng/ml EGF (BD Biosciences 354001) and 1% Pen-Strep (Gibco/cat: 151040-148). The wells of a μ-slide angiogenesis plate (IBIDI Cat no: 81506) were coated with a layer of matrigel matrix (BD 356234) which was left to polymerize for 45 minutes at 37° C. HMECs were grown to 80% confluence, washed with DPBS (Invitrogen) and trypsinised using 2 ml TrypLE™ Express (1×) (Invitrogen). Cells were centrifuged following flask detachment at 1200 rpm for 4 minutes. The cell pellet was resuspended in 3 ml full media and a cell count was performed using a haemocytometer. 7.5×10^3 cells were pipetted into each matrigel coated well of the μ-slide angiogenesis plate and treated with either 0.1% DMSO or 1, 3.16 or 10 μM compound 4 or compound 18. The slide was kept at 37° C./5% CO2 during cell tube formation. After 16 hours, 50 μl of media was removed from each of the Ibidi wells and 25 μl of the media was run in each well of a Meso Scale Discovery (MD, USA) custom multiplex ELISA containing the following analytes: Ang-1, Ang-2, VEGF, bFGF, PAI-1, sICAM and sVCAM. The ELISA was run as per manufacturer's instructions.

PAI-1 = assay: Multiplex ELISA of HMEC media: PAI-1; assay type: cell-based, human; details: compound-treated HMECs, 16 hours
Method: as §2

sICAM-1 = assay: Multiplex ELISA of HMEC media: sICAM-1; assay type: cell-based, human; details: compound-treated HMECs, 16 hours
Method: as §2

SMUG1 [1] = assay: qPCR DNA repair gene expression in OE33R: SMUG1; assay type: cell-based, human; details: 10 μM, 24 hours
Method: as §1

bFGF = assay: Multiplex ELISA of HMEC media: bFGF; assay type: cell-based, human; details: compound-treated HMECs, 16 hours
Method: as §2

[2] = tested on: human microvascular endothelial cells (HMECs); assay: In vitro tubule formation in human microvascular endothelial cells; assay type: cell-based; details: 1, 3.16 and 10 μM, 16 hours, HMEC on matrigel
Method: as §2, with “the cells were imaged by phase contrast microscopy using the Zeiss Axiovert 200 M microscope. Total tubule length” for “50 μl of media”, “quantified using Zeiss Axiovision image analysis software. Calcein AM stain (C3099 Invitrogen) was prepared at 2 μg/ml final concentration” for “removed from each of the Ibidi wells”, “incubated with HMEC cells” for “25 μl of the media was run in each well of a Meso Scale Discovery (MD, USA) custom multiplex ELISA containing the”, “tubule formation for 30 minutes at 37° C. […]” for “analytes: Ang-1, Ang-2, VEGF, bFGF, PAI-1, sICAM and sVCAM. The ELISA was run as per manufacturer's instructions.”

mouse aortic ring = assay: Ex vivo mouse aortic ring assay (sprout formation); details: 10 μM; C57/BL6 mouse aortic rings in matrigel; vs 0.1% DMSO; hydrochloride
Method: Aortae from sex matched C57/BL6 littermates were cleansed of adipose tissue, cut into 2 mm rings and immersed in matrigel. Aortic rings (6 per experiment) were treated with 0.1% DMSO (vehicle control/VC) or with 10 μM of Compound 4, Compound 12, Compound 15 or Compound 20. Sprouts from the perimeter of the aortic ring were counted and quantified as percentage of vehicle control (VC).

SMUG1 [3] = assay: qPCR DNA repair gene expression in OE33P: SMUG1; assay type: cell-based, human; details: 10 μM, 24 hours
Method: as §1

sVCAM-1 = assay: Multiplex ELISA of HMEC media: sVCAM-1; assay type: cell-based, human; details: compound-treated HMECs, 16 hours
Method: as §2

VEGF = assay: Multiplex ELISA of HMEC media: VEGF; assay type: cell-based, human; details: compound-treated HMECs, 16 hours
Method: as §2

[4] = tested on: human endothelial (HMEC) cells; assay: MTT cell viability assay in HMEC; assay type: cell-based; details: 10 μM, 24 hours
Method: A 3-(4,5-dimethylthiozol-2-yl)-2,5-diphenyltetrazolium bromide (MTT) dye reduction assay was carried out to determine the cytotoxicity of each compound on either human microvascular endothelial cells (HMECs) or human retinal pigmented epithelium cells (ARPE-19). Cells were maintained in a 95% air and 5% CO2 atmosphere at 37° C. in Dulbecco modified Eagle medium (DMEM, Sigma Aldrich) with 10% fetal bovine serum, 2 mM Gibco® L-glutamine and 100 units/ml penicillin, 1 mg/ml streptomycin (Invitrogen) supplementation. On day 1, cells were trypsinized (Trypsin-EDTA 1×) and seeded 1.4×10^4 cells per well of a 96 well plate and incubated overnight. On day 2, cells were serum staved in DMEM with L-glutamine and penicillin-streptomycin supplementation for 24 h. On day 3, cells were drug treated for 24 h (HMECs) or 96 h (ARPE-19 cells) with 0.1% DMSO or 10 μM to 90 μM of each compound 4, 8, 15, 18 or 20, with 4 replicate wells of each compound. After 24-96 h, cells were incubated with […] 5 mg/ml MTT labelling Reagent (Roche) for 2 h. Subsequently, when purple formazan crystals formed cells were incubated with 1× solubilisation solution (Roche) for 4 h and absorbance read at 570 nm using a microplate reader.

Structure (SMILES) | expression of MLH1 (qPCR) (MLH1) | expression of Ang-2 (Ang-2; hydrochloride) | expression of PAI-1 (PAI-1; hydrochloride) | expression of sICAM-1 (sICAM-1) | expression of SMUG1 (qPCR) (SMUG1 [1]) | expression of bFGF (bFGF) | tubule formation (total tubule length) ([2]; hydrochloride) | angiogenesis (sprout formation) in aortic rings (mouse aortic ring) | expression of SMUG1 (qPCR) (SMUG1 [3]) | expression of sVCAM-1 (sVCAM-1) | expression of VEGF (VEGF) | cell viability (MTT assay) [4] | expression of Ang-2 (Ang-2) | expression of PAI-1 (PAI-1) | tubule formation (total tubule length) [2]
Cl.Oc1ccccc1/C=C/c1cnccn1 [Compound 4, (E)-2-[2-(Pyrazin-2-yl)vinyl]phenol hydrochloride] | significantly reduces | significantly reduce; also recorded: reduce expression of Ang-2 and PAI-1 in human endothelial microvascular cells in a statistically significant manner | significantly reduce; also recorded: reduce expression of Ang-2 and PAI-1 in human endothelial microvascular cells in a statistically significant manner | not significantly different to control-treated HMECs | not significantly different to control | not significantly different to control-treated HMECs | significantly reduce tubule formation; also recorded: inhibit in vitro tubule formation in a statistically significant manner | block angiogenesis (sprout formation); also recorded: inhibit the formation of sprouts in a statistically significant manner | not significantly different to control | not significantly different to control-treated HMECs | not significantly different to control-treated HMECs | does not affect cell viability |  |  | 
Oc1ccccc1C#Cc1cnccn1 [Compound 18, 2-[2-(Pyrazin-2-yl)ethynyl]phenol] |  |  |  | not significantly different to control-treated HMECs |  | not significantly different to control-treated HMECs |  |  |  | not significantly different to control-treated HMECs | not significantly different to control-treated HMECs | does not affect cell viability | significantly reduce; also recorded: reduce expression of Ang-2 and PAI-1 in human endothelial microvascular cells in a statistically significant manner | significantly reduce; also recorded: reduce expression of Ang-2 and PAI-1 in human endothelial microvascular cells in a statistically significant manner | significantly reduce tubule formation; also recorded: inhibit in vitro tubule formation in a statistically significant manner
